Laboratory results as given in PMC6683117 (2019).

Test system: KRAS G12D mutated nucleotide (GAT), biotinylated hairpin (DNA, hairpin) TACATCTGATGGCGTATTAAGTTTTCTTAATACGCCATCAGATGTA
Assay: SPR (Biacore X100), kinetic kd/ka
Conditions: 150 mM NaCl; HBS-EP (10 mM HEPES, 3 mM EDTA, 0.005% P20), 0.1% DMSO, pH 7.4, 25 °C; printed ka, kd give 3.04 × 10^-8

- KD: 304 nM
Structure (SMILES): CN(C)CCCNC(=O)CCNC(=O)c1cc(NC(=O)c2nc(NC(=O)c3nc(NC(=O)CCNC(=O)c4cc(NC(=O)c5nc(NC(=O)CCCNC(=O)c6cc(NC(=O)c7cc(NC(=O)c8cc(NC(=O)CCNC(=O)c9cc(NC(=O)c%10nc(NC(=O)CCNC(=O)CCCC[C@@H]%11SC[C@@H]%12NC(=O)NC%12%11)cn%10C)cn9C)cn8C)cn7C)cn6C)cn5C)cn4C)cn3C)cn2C)cn1C (stereo partly shown)
